Key:
Format in all cases: cell-based, human
HPRT [1] = assay: CRISPR knock-in of Pol-II-driven shRNA into CCR5 region of K562 cells, 6-TG selection, HPRT staining; details: for obvious cytotoxicity in K562 cells: knock-in
Source text: It has been well known that some polymerase III-dependent short-hairpin RNAs have overexpression issues and can induce acute cytotoxicity. […] This is an important concern when considering the use of RNA interference (RNAi) as a potential therapeutic approach, especially in stem cell gene therapy. Here, polymerase II was used as alternative promoter to express microRNA so as to effectuate knockdown of the expression of HPRT. A CRISPR/Cas9 gene editing approach was utilized, and a Cas9 with a single guide RNA (Cas9 RNP) targeting CCR5, together with a single-stranded DNA oligonucleotide donor (ssODN) encoding an HPRT Pol II driven shRNA, was used to enable efficient replacement of the CCR5 locus with a functional HPRT miRNA. […] For knock-in of sh211 and sh734, the obvious cytotoxicity in K562 cells was not observed.

K562 cells = assay: in vitro 6TG selection and stability of transduced K562 cells (VCN, % GFP+); details: 6TG selected
Protocol: 4) 2×10^5 cells of control K562, 6 samples transduced at dilution factor 32 and 6 samples transduced at dilution factor 1 are reseeded in 6-well plate with 4 mL of RPMI without and with 300 nM of 6-thioguanine, respectively. 2.5×10^6 cells of 6 samples transduced at dilution factor 1 are made through mixing transduced and untransduced cells at ratio of 1:3. Two cell pellets (1×10^6 cells each) for DNA & RNA analysis for these 6 samples will be frozen down. The medium is refreshed every 3-4 days. K562 transduced with TL20cw-7SK/sh734-GFP (dilution factor at 256 and 8) will be included as positive controls.
5) Two cell pellets (1×10^6 cells each) for DNA & RNA analysis for 13 samples including control K562 will be frozen down at day 7/14/21 or even 28(MY). Copy numbers of GbG and sh734 are analyzed. The samples at day 21/28 are optional if the copy numbers of all samples are higher than 95% of expected value for day 14. […]
K562 cells were transduced with sh734 for 21 days before initiating 6TG treatment for 14 days (shaded areas). With reference to FIGS. 49A through 49G, vector copy number (VCN) was determined every two weeks from genomic DNA by multiplex RU5 qPCR and absolute quantitation from a standard curve using lentiviral vector (HIV-1-based LTR R-U5) target and human Apolipoprotein B (ApoB) reference sequences. […]

HPRT [2] = assay: HPRT knockdown in transduced K562 cells (qRT-PCR); details: after 6TG treatment
Protocol: With reference to FIG. 50, K562 cells were transduced with TL20c-rGbGM-7SK/sh734 or TL20c GbG^M21 days before initiating 6TG treatment. RNA was isolated and qRT-PCRT was performed to determine the number of copies of sh734 relative to RNU38B and normalized to VCN (relative expression/VCN). Relative expression levels of sh734 and HPRT were determined every two weeks post-transduction. The graph illustrated sh734 plotted on the left Y-axis and the percent of HPRT knockdown related to mock transduced cells (HPRT/mock×100) and normalized to VCN plotted on the right Y axis.
K562 cells were transduced with the sh7-GFP mono-vector reporter construct or CAL-H for 21 days before initiating 6TG. RNA was isolated, and qRT-PCR performed to determine the number of copies of sh734 relative to RNU38B and normalized to VCN (relative expression/VCN). FIGS. 51A and 51B illustrates the percent HPRT knockdown relative to mock transduced cells (HPRT/mock×100) normalized to VCN is plotted on the right Y axis. […] 14 days after selection, HPRT levels became undetectable in transduced cultures. 6TG selected K562 cells continued to grow and express sh734 after 3-months in culture (data not shown). […] At day 21, K562 cultures transduced with the sh7-GFP reporter construct were 35% GFP+ and increased to 88% GFP+ cells by day 42 following 6TG treatment.

sh734: shRNA targeting an HPRT gene, SEQ ID NO: 30 (AGGATATGCCCTTGACTATTTGTCCGACATAGTCAAGGGCATATCCTTTTTT)
obvious cytotoxicity in K562 cells (HPRT [1]): not observed | duration of sh734 expression and function in culture (K562 cells): greater than 3 months | HPRT levels (HPRT [2]): less than 10 % of untreated cells

sh211: shRNA targeting an HPRT gene, SEQ ID NO: 28 (GGTTATGACCTTGATTTATACCTGACCCATATTAAATCAAGGTCATAACCTTTTT)
obvious cytotoxicity in K562 cells (HPRT [1]): not observed

B1: sh211-3G: sh211 embedded in the miRNA-3G backbone, SEQ ID NO: 25; Pol-II (EF1a) driven (nucleic acid)
chain: CCGGATCAACGCCCTAGGTTTATGTTTGGATGAACTGACATACGCGTATCCGTCTTTTAAATCAAGGTCATAACCGTAGTGAAATATATATTAAACAGGTTATGACCTTGATTTAAAATACGGTAACGCGGAATTCGCAACTATTTTATCAATTTTTTGCGTCGAC
modifications: Synthetic miRNA211-3G
notes: Pol-II (EF1a) driven
HPRT levels (HPRT staining) (HPRT [1]; K562 cells after three weeks of 6-TG selection, control 99%): 12%

From patent US11795461B2, “Compositions and methods for treating beta-hemoglobinopathies” (CSL Behring Gene Therapy, Inc., priority 2017, dated 2023)
